Paper PMC10940743, “Discovery of a Novel Cellobiose Dehydrogenase from Cellulomonas palmilytica EW123 and Its Sugar Acids Production” (Journal of Microbiology and Biotechnology, 2023)

Tested on: T1, CpCDH (recombinant cellobiose dehydrogenase)
T1 construct: gene cdh; signal peptide (30 residues) excluded; CYT + linker + DH domains, no CBM1; pET-28a NdeI/NotI, C-terminal His tag avoided by stop codon (N-terminal His tag implied, HisTrap); E. coli BL21(DE3); 923 residues printed; forward primer starts MVEPRH; printed 2,772 bp PCR product fits poorly with residues 31-923
Experiment: spectrophotometric DCPIP reduction at […] nm, Michaelis-Menten
Assay type: biochemical, Cellulomonas palmilytica
Details: DCPIP as electron acceptor; 50 mM sodium acetate pH 5.0; 25°C

Structure (SMILES) | Km
OC[C@H]1O[C@@H](O[C@H]2[C@H](O)[C@@H](O)C(O)O[C@@H]2CO)[C@H](O)[C@@H](O)[C@@H]1O (some centres unmarked) [Cellobiose] | 2.24 mM
OC[C@H]1O[C@@H](O[C@H]2[C@H](O)[C@@H](O)C(O)O[C@@H]2CO)[C@H](O)[C@@H](O)[C@H]1O (some centres unmarked) [Lactose] | 6.93 mM
